Tests used:
HDAC1 enzyme = biological target: T1, HDAC1 enzyme (Homo sapiens, UniProt Q13547); test: HDAC1 enzyme inhibitory assay (HDAC-Glo I/II Assay kit); type: biochemical; settings: 1 μM test compound; for inhibition at 1 µM: read-out: HDAC1 inhibitory rate (%) (1 μM)
T1 construct: prepared by transducing full length HDAC1 and HDAC6 genes into Sf-9 insect cells; GST; purchased SignalChem; host or cells: Sf-9 insect cells
Protocol: HDAC1 enzyme and HDAC6 enzyme each prepared by transducing full length HDAC1 and HDAC6 genes into Sf-9 insect cells and purifying by GST affinity column were purchased from SignalChem. Using these enzymes, HDAC1 and/or HDAC6 enzyme inhibitory activities of the compound of the present invention were evaluated. Enzymes were used after preserved at −70° C. HDAC1 or HDAC6 enzyme inhibitory activity of the compound of the present invention was measured using HDAC-Glo™ I/II Assay kit (Promega) according to the following experimental method. The test compound diluted with assay buffer (24 mM Tris-HCl (pH 7.5), 1 mM MgCl2, 0.35 mM KCl, 135 mM NaCl, 0.6 mM Glutathione, 0.01% Tween-20) was added to a 384-well plate by each 2 μL. Then, HDAC1 or HDAC6 enzyme solution diluted with assay buffer was added thereto by each 4 μL, and the plate was incubated at room temperature for 60 min. After incubated, HDAC substrate-Developer solution prepared according to Promega protocol attached to the assay kit was added to the 384-well plate by each 2 μL, and the enzyme reaction was started. After reacting at room temperature for 20 min, luminescence level was measured using plate reader Envision (PerkinElmer). The inhibitory activity of each compound was calculated as a relative activity value when luminescence level in wells without enzyme is considered as 100% inhibition.

HDAC6 enzyme = biological target: T2, HDAC6 enzyme (Homo sapiens, UniProt Q9UBN7); test: HDAC6 enzyme inhibitory assay (HDAC-Glo I/II Assay kit); type: biochemical; settings: 1 μM test compound; for inhibition at 1 µM: read-out: HDAC6 inhibitory rate (%) (1 μM)
T2 construct: prepared by transducing full length HDAC1 and HDAC6 genes into Sf-9 insect cells; GST; purchased SignalChem; host or cells: Sf-9 insect cells
T2 sequence (Q9UBN7 1-1215): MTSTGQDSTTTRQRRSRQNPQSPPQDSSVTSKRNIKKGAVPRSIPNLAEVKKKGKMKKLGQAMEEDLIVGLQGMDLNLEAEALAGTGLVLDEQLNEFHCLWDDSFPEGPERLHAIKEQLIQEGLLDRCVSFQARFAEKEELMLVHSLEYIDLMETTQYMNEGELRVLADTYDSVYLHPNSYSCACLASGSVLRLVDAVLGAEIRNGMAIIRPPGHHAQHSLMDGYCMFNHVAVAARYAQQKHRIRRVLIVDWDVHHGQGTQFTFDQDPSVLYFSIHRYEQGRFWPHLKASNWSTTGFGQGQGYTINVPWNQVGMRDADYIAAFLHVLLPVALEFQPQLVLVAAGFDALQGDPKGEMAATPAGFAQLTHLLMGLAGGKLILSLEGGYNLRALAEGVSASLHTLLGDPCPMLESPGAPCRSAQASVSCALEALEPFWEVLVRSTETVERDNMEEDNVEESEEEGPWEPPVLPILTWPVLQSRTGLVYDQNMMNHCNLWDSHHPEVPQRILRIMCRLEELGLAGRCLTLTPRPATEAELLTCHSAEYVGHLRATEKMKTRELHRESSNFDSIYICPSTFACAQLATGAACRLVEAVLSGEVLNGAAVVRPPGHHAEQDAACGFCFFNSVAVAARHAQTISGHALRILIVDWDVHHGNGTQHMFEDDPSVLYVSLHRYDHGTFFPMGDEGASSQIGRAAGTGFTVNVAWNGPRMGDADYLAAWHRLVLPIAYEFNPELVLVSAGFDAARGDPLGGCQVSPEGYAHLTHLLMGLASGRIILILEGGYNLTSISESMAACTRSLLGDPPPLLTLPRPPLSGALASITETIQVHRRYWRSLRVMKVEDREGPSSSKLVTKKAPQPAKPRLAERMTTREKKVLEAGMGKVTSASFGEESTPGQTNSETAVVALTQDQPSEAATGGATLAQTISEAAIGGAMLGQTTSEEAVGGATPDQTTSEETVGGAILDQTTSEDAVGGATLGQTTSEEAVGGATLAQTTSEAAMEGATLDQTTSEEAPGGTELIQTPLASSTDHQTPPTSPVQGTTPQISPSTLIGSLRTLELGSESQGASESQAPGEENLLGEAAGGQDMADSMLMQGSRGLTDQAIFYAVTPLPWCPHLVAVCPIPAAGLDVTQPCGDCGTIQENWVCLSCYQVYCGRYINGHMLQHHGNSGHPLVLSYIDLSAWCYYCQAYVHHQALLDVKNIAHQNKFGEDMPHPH
Summary of the method: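 Luminescence read-out: 20 min after adding HDAC-Glo substrate-developer at room temperature. Before that, compound and Sf-9-expressed, GST-purified full-length HDAC1 or HDAC6 sat together 60 min in pH 7.5 Tris buffer. Inhibition is relative to no-enzyme wells taken as 100%.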

T1 sequence (Q13547 whole entry): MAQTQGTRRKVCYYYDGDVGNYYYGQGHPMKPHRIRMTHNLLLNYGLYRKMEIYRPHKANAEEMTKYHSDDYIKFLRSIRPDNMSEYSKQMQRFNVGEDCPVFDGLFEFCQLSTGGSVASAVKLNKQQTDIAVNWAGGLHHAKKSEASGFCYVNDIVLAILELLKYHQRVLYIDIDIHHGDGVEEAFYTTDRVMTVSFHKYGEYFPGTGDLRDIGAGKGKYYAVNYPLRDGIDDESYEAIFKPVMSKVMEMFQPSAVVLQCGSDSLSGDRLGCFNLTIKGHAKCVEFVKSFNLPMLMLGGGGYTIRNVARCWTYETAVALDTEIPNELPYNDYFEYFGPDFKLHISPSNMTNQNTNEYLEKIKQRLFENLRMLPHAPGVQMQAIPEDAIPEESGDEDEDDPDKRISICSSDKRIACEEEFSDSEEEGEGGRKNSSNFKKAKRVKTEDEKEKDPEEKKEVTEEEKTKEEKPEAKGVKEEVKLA

Row | SMILES | inhibition at 1 µM (HDAC1 enzyme) [%] | inhibition at 1 µM (HDAC6 enzyme) [%] | HDAC1 inhibitory rate (%) (1 μM) (HDAC1 enzyme; 1 µM) | HDAC6 inhibitory rate (%) (1 μM) (HDAC6 enzyme; 1 µM)
1 | O=C(NC[C@H]1COCCN1C(=O)N1CCCCC1CO)c1ccc(-c2noc(C(F)(F)F)n2)cc1 (stereo partly drawn) [Example 303, N-(((3S)-4-((2-(hydroxymethyl)piperidin-1-yl)carbonyl)morpholin-3-yl)methyl)-4-(5-(trifluoromethyl)-1,2,4-oxadiazol-3-yl)benzamide] | 8 | 99 |  | 
2 | Cc1nc2sccn2c1C(=O)N1CCOC[C@@H]1CNC(=O)c1ccc(-c2noc(C(F)(F)F)n2)cc1 [Example 91, N-(((3S)-4-((6-methylimidazo[2,1-b][1,3]thiazol-5-yl)carbonyl)morpholin-3-yl)methyl)-4-(5-(trifluoromethyl)-1,2,4-oxadiazol-3-yl)benzamide] | 42 | 98 |  | 
3 | O=C(NC[C@H]1COCCN1C(=O)N1CCC(CO)C1)c1ccc(-c2noc(C(F)(F)F)n2)cc1 (stereo partly drawn) [Example 299, N-(((3S)-4-((3-(hydroxymethyl)pyrrolidin-1-yl)carbonyl)morpholin-3-yl)methyl)-4-(5-(trifluoromethyl)-1,2,4-oxadiazol-3-yl)benzamide] |  |  | 4 | 94
4 | O=C(NCC1Cc2ccccc2N1C(=O)c1ccccc1)c1ccc(-c2noc(C(F)(F)F)n2)cc1 (centres unmarked) [Example 167, N-((1-benzoyl-2,3-dihydro-1H-indol-2-yl)methyl)-4-(5-(trifluoromethyl)-1,2,4-oxadiazol-3-yl)benzamide] | 15 | 93 |  | 
5 | O=C(NCC1COCCN1C(=O)c1ccc2nccn2c1)c1ccc(-c2noc(C(F)(F)F)n2)cc1 (centres unmarked) [Example 20, N-((4-(imidazo[1,2-a]pyridin-6-ylcarbonyl)morpholin-3-yl)methyl)-4-(5-(trifluoromethyl)-1,2,4-oxadiazol-3-yl)benzamide] | 20 | 99 |  | 
6 | O=C(NCC1COCCN1C(=O)c1cc(Cl)cc(Cl)c1)c1ccc(-c2noc(C(F)(F)F)n2)cc1 (centres unmarked) [Example 30, N-((4-(3,5-dichlorobenzoyl)morpholin-3-yl)methyl)-4-(5-(trifluoromethyl)-1,2,4-oxadiazol-3-yl)benzamide] | 24 | 98 |  | 
7 | Cc1nnsc1C(=O)N1CCOC[C@@H]1CNC(=O)c1ccc(-c2noc(C(F)(F)F)n2)cn1 [Example 195, N-(((3S)-4-((4-methyl-1,2,3-thiadiazol-5-yl)carbonyl)morpholin-3-yl)methyl)-5-(5-(trifluoromethyl)-1,2,4-oxadiazol-3-yl)pyridine-2-carboxamide] | 40 | 98 |  | 
8 | O=C(NC[C@H]1COCCN1C(=O)N1CCCC2(COC2)C1)c1ccc(-c2noc(C(F)(F)F)n2)cc1 [Example 281, N-(((3S)-4-(2-oxa-6-azaspiro[3.5]non-6-ylcarbonyl)morpholin-3-yl)methyl)-4-(5-(trifluoromethyl)-1,2,4-oxadiazol-3-yl)benzamide] | 7 | 93 |  | 
9 | O=C(NC[C@H]1COCCN1C(=O)N1CCCC(CO)C1)c1ccc(-c2noc(C(F)(F)F)n2)cc1 (stereo partly drawn) [Example 276, N-(((3S)-4-((3-(hydroxymethyl)piperidin-1-yl)carbonyl)morpholin-3-yl)methyl)-4-(5-(trifluoromethyl)-1,2,4-oxadiazol-3-yl)benzamide] | 9 | 89 |  | 
10 | O=C(NC[C@@H]1COCCN1C(=O)C1CC1)c1ccc(-c2noc(C(F)(F)F)n2)cc1 [Example 147, N-(((3R)-4-(cyclopropylcarbonyl)morpholin-3-yl)methyl)-4-(5-(trifluoromethyl)-1,2,4-oxadiazol-3-yl)benzamide] | 7 | 94 |  | 
11 | O=C(NC[C@H]1COCCN1C(=O)c1ccc(OCC(F)(F)F)nc1)c1ccc(-c2noc(C(F)(F)F)n2)cc1 [Example 51, N-(((3S)-4-((6-(2,2,2-trifluoroethoxy)pyridin-3-yl)carbonyl)morpholin-3-yl)methyl)-4-(5-(trifluoromethyl)-1,2,4-oxadiazol-3-yl)benzamide] | 15 | 99 |  | 
12 | O=C(NC[C@H]1COCCN1C(=O)C1C2CC3CC(C2)CC1C3)c1ccc(-c2noc(C(F)(F)F)n2)cn1 (some centres unmarked) [Example 205, N-((4-(adamantan-2-ylcarbonyl)morpholin-3-yl)methy)-5-(5-(trifluoromethyl)-1,2,4-oxadiazol-3-yl)pyridine-2-carboxamide] | 59 | 99 |  | 
13 | O=C(NCC1COCCN1C(=O)c1ccc(-c2ccccc2)cc1)c1ccc(-c2noc(C(F)(F)F)n2)cc1 (centres unmarked) [Example 23, N-((4-(biphenyl-4-ylcarbonyl)morpholin-3-yl)methyl)-4-(5-(trifluoromethyl)-1,2,4-oxadiazol-3-yl)benzamide] | 36 | 95 |  | 
14 | Cc1cc(C(=O)NCC2COCCN2C(=O)c2ccccc2)ccc1-c1noc(C(F)(F)F)n1 (centres unmarked) [Example 179, N-((4-benzoylmorpholin-3-yl)methyl)-3-methyl-4-(5-(trifluoromethyl)-1,2,4-oxadiazol-3-yl)benzamide] | -1 | 36 |  | 
15 | N#C[C@H]1CCCN1C(=O)N1CCOC[C@@H]1CNC(=O)c1ccc(-c2noc(C(F)(F)F)n2)cc1 [Example 284, N-(((3S)-4-(((2R)-2-cyanopyrrolidin-1-yl)carbonyl)morpholin-3-yl)methyl)-4-(5-(trifluoromethyl)-1,2,4-oxadiazol-3-yl)benzamide] | 1 | 95 |  | 
16 | Cn1nc2c(c1C(=O)N1CCOCC1CNC(=O)c1ccc(-c3noc(C(F)(F)F)n3)cc1)CCCC2 (stereo in doubt) [Example 93, N-(((3S)-4-((2-methyl-4,5,6,7-tetrahydro-2H-indazol-3-yl)carbonyl)morpholin-3-yl)methyl)-4-(5-(trifluoromethyl)-1,2,4-oxadiazol-3-yl)benzamide] | 21 | 95 |  | 
17 | O=C(NCC1CCc2ccccc2N1C(=O)C1CC1)c1ccc(-c2noc(C(F)(F)F)n2)cc1 (centres unmarked) [Example 172, N-((1-(cyclopropylcarbonyl)-1,2,3,4-tetrahydroquinolin-2-yl)methyl)-4-(5-(trifluoromethyl)-1,2,4-oxadiazol-3-yl)benzamide] | 8 | 95 |  | 
18 | O=C(NC[C@H]1COCCN1C(=O)N1CCC(CO)C1)c1ccc(-c2noc(C(F)(F)F)n2)cc1 (stereo partly drawn) [Example 298, N-(((3S)-4-((3-(hydroxymethyl)pyrrolidin-1-yl)carbonyl)morpholin-3-yl)methyl)-4-(5-(trifluoromethyl)-1,2,4-oxadiazol-3-yl)benzamide] | 3 | 88 |  | 
19 | O=C(NCC1COCCN1C(=O)c1ccccc1-c1ccccc1)c1ccc(-c2noc(C(F)(F)F)n2)cc1 (centres unmarked) [Example 32, N-((4-(biphenyl-2-ylcarbonyl)morpholin-3-yl)methyl)-4-(5-(trifluoromethyl)-1,2,4-oxadiazol-3-yl)benzamide] | 23 | 96 |  | 

Reference: patent publication US10081624B2, “Heterocyclic compound” (Takeda Pharmaceutical Company Limited, priority 2014, dated 2018)
